In patent US20260325533A1, “CDK INHIBITOR COMPOUNDS” (ALEKSIA THERAPEUTICS, INC., priority 2023, published 2026):
Where two headings read alike, the source gives them in different places.

Legend:
[1] = molecular target: CDK1/CCNB1 (Homo sapiens, UniProt P06493); test: CDK1 homogeneous time-resolved fluorescence (HTRF) kinase assay; assay type: biochemical; settings: CDK1/CCNB
Summary of the method: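 HTRF assay with 0.5 nM CDK1/CCNB1, 1 mM ATP, 50 nM ULight-eIF4E-BP1 (Thr37/46) peptide; compound preincubated 20 min, reaction 60 min at 23 °C, EDTA stop, Eu-anti-phospho antibody detection. 11-point half-log titration from 10 μM, 1% DMSO; IC50 from 665 nm or 665/615 signal.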

[2] = molecular target: CDK2/CCNE1 (Homo sapiens, UniProt P24941); test: CDK2 homogeneous time-resolved fluorescence (HTRF) kinase assay; assay type: biochemical; settings: CDK2/CCNE
Summary of the method: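 IC50 derived from 11-point, half-log dilutions (usually top 10 μM) of compound, 1% DMSO. Kinase (3 nM CDK2/CCNE1) was preincubated with compound 20 min, then phosphorylated 50 nM ULight-4E-BP1 peptide at 1 mM ATP for 60 min, 23 °C. Europium-antibody TR-FRET read after EDTA stop.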

[3] = >250 nM marked x, read-out: CDK1/CCNB IC50 >250 nM
[4] = 25-250 nM marked x, read-out: CDK2/CCNE IC50 25-250 nM
[5] = >250 nM marked x, read-out: CDK2/CCNE IC50 >250 nM

Chain of CDK1/CCNB1 (P06493 whole entry): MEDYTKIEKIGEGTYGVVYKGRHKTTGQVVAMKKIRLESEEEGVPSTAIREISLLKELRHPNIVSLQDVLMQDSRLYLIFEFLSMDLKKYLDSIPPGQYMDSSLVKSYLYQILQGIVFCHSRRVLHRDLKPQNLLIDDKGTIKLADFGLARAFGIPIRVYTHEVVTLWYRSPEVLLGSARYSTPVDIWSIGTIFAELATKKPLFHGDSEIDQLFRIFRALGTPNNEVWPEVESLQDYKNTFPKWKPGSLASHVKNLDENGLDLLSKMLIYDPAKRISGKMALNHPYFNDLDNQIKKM
Chain of CDK1/CCNB1 (P14635 whole entry partner): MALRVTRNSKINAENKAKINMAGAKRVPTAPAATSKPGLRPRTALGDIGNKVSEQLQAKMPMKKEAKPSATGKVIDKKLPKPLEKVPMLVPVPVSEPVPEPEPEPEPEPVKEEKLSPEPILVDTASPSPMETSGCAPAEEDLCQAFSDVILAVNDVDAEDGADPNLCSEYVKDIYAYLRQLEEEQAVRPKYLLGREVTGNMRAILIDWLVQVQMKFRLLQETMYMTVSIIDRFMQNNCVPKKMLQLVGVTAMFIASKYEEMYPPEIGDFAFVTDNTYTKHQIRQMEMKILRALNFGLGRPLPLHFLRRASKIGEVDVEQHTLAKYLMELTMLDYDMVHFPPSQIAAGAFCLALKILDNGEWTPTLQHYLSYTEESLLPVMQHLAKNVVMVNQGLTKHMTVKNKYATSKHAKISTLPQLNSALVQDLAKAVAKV

IC50 [1, 3] [nM] | IC50 [2, 4] [nM] | IC50 [2, 5] [nM] | IC50 ([1]; 25-250 nM marked x, read-out: CDK1/CCNB IC50 25-250 nM) [nM] | IC50 ([2]; <25 nM, read-out: CDK2/CCNE IC50 <25 nM) [nM] | Structure (SMILES)
> 250 |  | > 250 |  |  | C=CS(=O)(=O)c1ccc(Nc2cc3c(-c4cccc(OC(F)(F)F)c4)nccc3cn2)cc1 [Ex 161, 5-(3-(trifluoromethoxy)phenyl)-N-(4-(vinylsulfonyl)phenyl)-2,6-naphthyridin-3-amine]
> 250 | 25 to 250 |  |  |  | CS(=O)(=O)c1ccc(Nc2cc3c(-c4ccc5c(c4)C4(CC4)C(=O)N5)nccc3cn2)cc1 [Ex 163, 5'-(7-((4-(methylsulfonyl)phenyl)amino)-2,6-naphthyridin-1-yl)spiro[cyclopropane-1,3'-indolin]-2'-one]
> 250 | 25 to 250 |  |  |  | Cc1c(-c2nccc3cnc(Nc4ccc(S(C)(=O)=O)cc4)cc23)ccc2c1cnn2C1CCOCC1 [Ex 164, 5-(4-methyl-1-(tetrahydro-2H-pyran-4-yl)-1H-indazol-5-yl)-N-(4-(methylsulfonyl)phenyl)-2,6-naphthyridin-3-amine]
> 250 | 25 to 250 |  |  |  | Cc1c(-c2nccc3cnc(Nc4ccc(S(C)(=O)=O)cc4)cc23)ccc2nn(C3CCOCC3)cc12 [Ex 165, 5-(4-methyl-2-(tetrahydro-2H-pyran-4-yl)-2H-indazol-5-yl)-N-(4-(methylsulfonyl)phenyl)-2,6-naphthyridin-3-amine]
 |  |  | 25 to 250 | < 25 | CS(=O)(=O)c1ccc(Nc2cc3c(C#C[C@H]4CC[C@H](C(N)=O)CC4)nccc3cn2)cc1 [Ex 168, (1r,4r)-4-((7-((4-(methylsulfonyl)phenyl)amino)-2,6-naphthyridin-1-yl)ethynyl)cyclohexane-1-carboxamide]
> 250 |  | > 250 |  |  | CS(=O)(=O)c1ccc(Nc2cc3c(C4CCN(S(C)(=O)=O)CC4)nccc3cn2)cc1 [Ex 175, N-(4-(methylsulfonyl)phenyl)-5-(1-(methylsulfonyl)piperidin-4-yl)-2,6-naphthyridin-3-amine]
> 250 |  | > 250 |  |  | CNC(=O)N1CCC(c2nccc3cnc(Nc4ccc(S(C)(=O)=O)cc4)cc23)CC1 [Ex 177, N-methyl-4-(7-((4-(methylsulfonyl)phenyl)amino)-2,6-naphthyridin-1-yl)piperidine-1-carboxamide]
> 250 | 25 to 250 |  |  |  | CNC(=O)[C@H]1CC[C@H](c2nccc3cnc(Nc4ccc(S(C)(=O)=O)cc4)cc32)CC1 [Ex 178, (1r,4r)-N-methyl-4-(7-((4-(methylsulfonyl)phenyl)amino)-2,6-naphthyridin-1-yl)cyclohexane-1-carboxamide]
> 250 | 25 to 250 |  |  |  | Cc1c(-c2nccc3cnc(Nc4ccc(S(C)(=O)=O)cc4)cc23)ccc2nn(CCC#N)cc12 [Ex 197, 3-(4-methyl-5-(7-((4-(methylsulfonyl)phenyl)amino)-2,6-naphthyridin-1-yl)-2H-indazol-2-yl)propanenitrile]

The next lines start with the compound.

Structure (SMILES) | IC50 [1, 3] [nM] | IC50 [2, 4] [nM] | IC50 [2, 5] [nM] | IC50 ([1]; 25-250 nM marked x, read-out: CDK1/CCNB IC50 25-250 nM) [nM] | IC50 ([2]; <25 nM, read-out: CDK2/CCNE IC50 <25 nM) [nM]
CN1CCC(c2nccc3cnc(Nc4ccc(S(C)(=O)=O)cc4)cc23)CC1 [Ex 151, 5-(1-methylpiperidin-4-yl)-N-(4-(methylsulfonyl)phenyl)-2,6-naphthyridin-3-amine] | > 250 | 25 to 250 |  |  | 
CCN1CCC(c2nccc3cnc(Nc4ccc(S(C)(=O)=O)cc4)cc23)CC1 [Ex 152, 5-(1-ethylpiperidin-4-yl)-N-(4-(methylsulfonyl)phenyl)-2,6-naphthyridin-3-amine] | > 250 | 25 to 250 |  |  | 
CS(=O)(=O)c1ccc(Nc2cc3c(C4CCN(CC5CCCCC5)CC4)nccc3cn2)cc1 [Ex 153, 5-(1-(cyclohexylmethyl)piperidin-4-yl)-N-(4-(methylsulfonyl)phenyl)-2,6-naphthyridin-3-amine] | > 250 |  | > 250 |  | 
CC(=O)N1CCC(c2nccc3cnc(Nc4ccc(S(C)(=O)=O)cc4)cc23)CC1 [Ex 154, 1-(4-(7-((4-(methylsulfonyl)phenyl)amino)-2,6-naphthyridin-1-yl)piperidin-1-yl)ethan-1-one] | > 250 |  | > 250 |  | 
C=CC(=O)N1CCC(c2nccc3cnc(Nc4ccc(S(C)(=O)=O)cc4)cc23)CC1 [Ex 155, 1-(4-(7-((4-(methylsulfonyl)phenyl)amino)-2,6-naphthyridin-1-yl)piperidin-1-yl)prop-2-en-1-one] | > 250 |  | > 250 |  | 
C=CS(=O)(=O)c1ccc(Nc2cc3c(-c4ccc(O)cc4)nccc3cn2)cc1 [Ex 157, 4-(7-((4-(vinylsulfonyl)phenyl)amino)-2,6-naphthyridin-1-yl)phenol] | > 250 | 25 to 250 |  |  | 
Cc1cc2nn(C)cc2cc1-c1nccc2cnc(NC3CCN(S(C)(=O)=O)CC3)cc12 [Ex 159, 5-(2,6-dimethyl-2H-indazol-5-yl)-N-(1-(methylsulfonyl)piperidin-4-yl)-2,6-naphthyridin-3-amine] | > 250 | 25 to 250 |  |  | 
C=CS(=O)(=O)c1ccc(Nc2cc3c(-c4cccc(C(F)(F)F)c4)nccc3cn2)cc1 [Ex 160, 5-(3-(trifluoromethyl)phenyl)-N-(4-(vinylsulfonyl)phenyl)-2,6-naphthyridin-3-amine] | > 250 | 25 to 250 |  |  | 
CC(C)N1CCC(c2nccc3cnc(Nc4ccc(S(C)(=O)=O)cc4)cc23)CC1 [Ex 170, 5-(1-isopropylpiperidin-4-yl)-N-(4-(methylsulfonyl)phenyl)-2,6-naphthyridin-3-amine] | > 250 |  | > 250 |  | 
C=CCN1CCC(c2nccc3cnc(Nc4ccc(S(C)(=O)=O)cc4)cc23)CC1 [Ex 171, 5-(1-allylpiperidin-4-yl)-N-(4-(methylsulfonyl)phenyl)-2,6-naphthyridin-3-amine] | > 250 |  | > 250 |  | 
CS(=O)(=O)c1ccc(Nc2cc3c(C4CCN(Cc5ccccc5)CC4)nccc3cn2)cc1 [Ex 172, 5-(1-benzylpiperidin-4-yl)-N-(4-(methylsulfonyl)phenyl)-2,6-naphthyridin-3-amine] | > 250 |  | > 250 |  | 
COc1ccc(CN2CCC(c3nccc4cnc(Nc5ccc(S(C)(=O)=O)cc5)cc34)CC2)cc1 [Ex 173, 5-(1-(4-methoxybenzyl)piperidin-4-yl)-N-(4-(methylsulfonyl)phenyl)-2,6-naphthyridin-3-amine] | > 250 |  | > 250 |  | 
CS(=O)(=O)c1ccc(Nc2cc3c(C4CCN(Cc5cccnc5)CC4)nccc3cn2)cc1 [Ex 174, N-(4-(methylsulfonyl)phenyl)-5-(1-(pyridin-3-ylmethyl)piperidin-4-yl)-2,6-naphthyridin-3-amine] | > 250 |  | > 250 |  | 
CC(C)S(=O)(=O)N1CCC(c2nccc3cnc(Nc4ccc(S(C)(=O)=O)cc4)cc23)CC1 [Ex 176, 5-(1-(isopropylsulfonyl)piperidin-4-yl)-N-(4-(methylsulfonyl)phenyl)-2,6-naphthyridin-3-amine] | > 250 |  | > 250 |  | 
CCNC(=O)[C@H]1CC[C@H](c2nccc3cnc(Nc4ccc(S(C)(=O)=O)cc4)cc32)CC1 [Ex 179, (1r,4r)-N-ethyl-4-(7-((4-(methylsulfonyl)phenyl)amino)-2,6-naphthyridin-1-yl)cyclohexane-1-carboxamide] | > 250 | 25 to 250 |  |  | 
CCCNC(=O)[C@H]1CC[C@H](c2nccc3cnc(Nc4ccc(S(C)(=O)=O)cc4)cc32)CC1 [Ex 180, (1r,4r)-4-(7-((4-(methylsulfonyl)phenyl)amino)-2,6-naphthyridin-1-yl)-N-propylcyclohexane-1-carboxamide] | > 250 | 25 to 250 |  |  | 
CC(C)NC(=O)[C@H]1CC[C@H](c2nccc3cnc(Nc4ccc(S(C)(=O)=O)cc4)cc32)CC1 [Ex 181, (1r,4r)-N-isopropyl-4-(7-((4-(methylsulfonyl)phenyl)amino)-2,6-naphthyridin-1-yl)cyclohexane-1-carboxamide] | > 250 |  | > 250 |  | 
Cc1c(-c2nccc3cnc(Nc4ccc(S(C)(=O)=O)cc4)cc23)ccc2c1cnn2C1CCNCC1 [Ex 182, 5-(4-methyl-1-(piperidin-4-yl)-1H-indazol-5-yl)-N-(4-(methylsulfonyl)phenyl)-2,6-naphthyridin-3-amine] | > 250 | 25 to 250 |  |  | 
CS(=O)(=O)c1ccc(Nc2cc3c(N4CCCCC4)nc(C=O)cc3cn2)cc1 [Ex 186, 7-((4-(methylsulfonyl)phenyl)amino)-1-(piperidin-1-yl)-2,6-naphthyridine-3-carbaldehyde] | > 250 | 25 to 250 |  |  | 
C=CS(=O)(=O)c1ccc(Nc2cc3c(N4CC(C#N)C4)nccc3cn2)cc1 [Ex 188, 1-(7-((4-(vinylsulfonyl)phenyl)amino)-2,6-naphthyridin-1-yl)azetidine-3-carbonitrile] | > 250 | 25 to 250 |  |  | 
Cc1c(-c2nccc3cnc(Nc4ccc(S(C)(=O)=O)cc4)cc23)ccc2c1cnn2CCC#N [Ex 194, 3-(4-methyl-5-(7-((4-(methylsulfonyl)phenyl)amino)-2,6-naphthyridin-1-yl)-1H-indazol-1-yl)propanenitrile] | > 250 | 25 to 250 |  |  | 
Cc1c(-c2nccc3cnc(Nc4ccc(S(C)(=O)=O)cc4)cc23)ccc2nn(CC3CNC3)cc12 [Ex 196, 5-(2-(azetidin-3-ylmethyl)-4-methyl-2H-indazol-5-yl)-N-(4-(methylsulfonyl)phenyl)-2,6-naphthyridin-3-amine] | > 250 | 25 to 250 |  |  | 
